One block for each compound: values may come before it.
How the values were obtained:
[1] = In vivo release profile of vaginal rings in clinical study 000155; set-up: species or system healthy women
[2] = Plasma concentration of quinagolide and active metabolites in sheep with intravaginal rings; type: in vivo; details: first and second sheep trials
Excerpt: During the first and second sheep trials, the plasma concentration of quinagolide (Q) was monitored over the 28 day period. The plasma concentrations of active metabolites (M1 and M2: see FIG. 13) were also monitored in the sheep. The results are illustrated in FIG. 10 (see Tables 14 and 17 for quinagolide dose).

[3] = PK variables for quinagolide administered by an intravaginal ring in clinical study 000155; type: in vivo, healthy women; details: for Tmax: median
Procedure: Following intravaginal administration the plasma concentration of quinagolide increased to reach a maximum at approximately 37-39 hours with a subsequent slow decline until the ring was removed (see FIG. 15). The mean time for reaching a maximum serum concentration was similar between all three dose groups but with substantial inter-individual variation. Cmax increased with increasing dose while the mean terminal half-life estimations were appropriately the same in all three doses (Table 21: above).

[4] = vaginal ring dose load 400 μg, target release 5 μg/day
[5] = vaginal ring dose load 800 μg, target release 10 μg/day
[6] = vaginal ring dose load 1200 μg, target release 15 μg/day

Average release 35 Days [1, 4]: 9.4 µg/day | Average release 7 days [1, 4]: 10.4 µg/day | Average release 28 days [1, 4]: 8.8 µg/day | Average release 35 Days [1, 5]: 16.8 µg/day | Average release 7 days [1, 5]: 24.1 µg/day | Average release 28 days [1, 5]: 12.6 µg/day | Average release 35 Days [1, 6]: 21.3 µg/day | Average release 7 days [1, 6]: 43.4 µg/day | Average release 28 days [1, 6]: 29.7 µg/day | quinagolide concentration in the plasma at any point during the study [2]: ≤ 50 pg/mL | AUC Day 0-28 (Hpg/mL) ([3]; 400 μg intravaginal ring, Mean (SD)): 738 (236) Hpg/mL | AUC Day 0-28 (Hpg/mL) ([3]; 800 μg intravaginal ring, Mean (SD)): 1497 (379) Hpg/mL | AUC Day 0-28 (Hpg/mL) ([3]; 1200 μg intravaginal ring, Mean (SD)): 3297 (1040) Hpg/mL | Cmax ([3]; female, human, plasma, 400 ug, 400 μg intravaginal ring, Mean (SD)): 3.4 pg/mL | Tmax ([3]; female, human, plasma, 400 ug, 400 μg intravaginal ring): 48 h | Cmax ([3]; female, human, plasma, 800 ug, 800 μg intravaginal ring, Mean (SD)): 5.3 pg/mL | Tmax ([3]; female, human, plasma, 800 ug, 800 μg intravaginal ring): 48 h | Cmax ([3]; female, human, plasma, 1200 ug, 1200 μg intravaginal ring, Mean (SD)): 10.9 pg/mL | Tmax ([3]; female, human, plasma, 1200 ug, 1200 μg intravaginal ring): 36 h | half-life ([3]; female, human, plasma, other: intravaginal ring, 400 ug, printed in the 400 μg line only, Mean (SD), read-out: T½ (converted)): 14 h | time at which plasma concentration of quinagolide reached a maximum ([3]; intravaginal administration, all three dose groups): 37 to 39 h
SMILES: CCCN1C[C@@H](NS(=O)(=O)N(CC)CC)C[C@@H]2Cc3c(O)cccc3C[C@H]21 [quinagolide, N,N-diethyl-N′-[(3S,4aS, 10aR)-6-hydroxy-1-propyl-1,2,3,4,4a,5,10,10a-octahydrobenzo[g]quinolin-3-yl]sulfamide]

SMILES: CCCN1CC(NS(=O)(=O)NCC)CC2Cc3c(O)cccc3CC21 (centres unmarked) [Batch M1]
molar plasma concentration, fold lower than the quinagolide [2]: approximately 10 fold

SMILES: CCCN1CC(NS(N)(=O)=O)CC2Cc3c(O)cccc3CC21 (centres unmarked) [Batch M2]
molar plasma concentration, fold lower than the quinagolide [2]: approximately 10 fold

From patent publication US20180008535A1, “Drug-Device Unit Containing Quinagolide” (Ferring B.V., priority 2014, published 2018)
